Data on twelve compounds can be found in patent US11464770B2, “Anticancer pharmaceutical composition” (NATIONAL CANCER CENTER, priority 2016, dated 2022).

For one assay, the system named is neuroblastoma cell lines. Description: Cell based assay, cell viability (CellTiter-Glo), neuroblastoma cell lines. As to conditions: Homo sapiens; SH-SY5Y cell line. The method, boiled down:
(§1)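 Each commercial line was plated and allowed 24 h to settle at constant temperature. Compound exposure ran 72 h at final concentrations spanning 0 to 2 μM. Cell viability was then determined by luminescent ATP detection.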
(In ATP-based viability assays light output follows the ATP content of the culture.)

A further assay deals with liver cancer cell lines. As to the kind of experiment: Cell based assay, cell viability (CellTiter-Glo), liver cancer cell lines. Conditions: Homo sapiens, SK-HEP1; SK-HEP-1 cell line. Summed up: as §1
In assay [1] the test system is ovarian cancer cell lines. As to the kind of experiment: Cell based assay, cell viability (CellTiter-Glo), ovarian cancer cell lines. Conditions: Homo sapiens; OVCAR-3 cells. The method, boiled down: as §1
Assay [2] concerns bladder cancer cell lines. Description: Cell based assay, cell viability (CellTiter-Glo), bladder cancer cell lines. As to conditions: 72 hours treatment, 0 to 2 μM, CellTiter-Glo. The method, boiled down: as §1
In assay [3] the test system is RT4: human urinary bladder transitional cell papilloma. Description: Cell based assay, cytotoxicity in RT4 papilloma cells (selectivity). As to conditions: Homo sapiens, RT-4; RT4 cells.
In assay [4] the test system is prostate cancer cell lines (e.g. DU145/TXR). Description: Cell based assay, cell viability (CellTiter-Glo), prostate cancer cell lines. Conditions: Homo sapiens, 72 hours treatment, final concentration 0 to 2 μM. The method, boiled down: as §1
Where [5] appears, read: 253J cells, read-out: IC50, bladder cancer cell line 253J.
Setting [6] is: 5637 cells, read-out: IC50, bladder cancer cell line 5637.
[7] abbreviates: Homo sapiens, T-24, T24 cells, read-out: IC50, bladder cancer cell line T24.
The mark [8] stands for this setting: Homo sapiens, UMUC3, UM-UC-3 cells, read-out: IC50, bladder cancer cell line UM-UC-3.
[9] abbreviates: Homo sapiens, J82 cells, read-out: IC50, bladder cancer cell line J82.
[10] abbreviates: Homo sapiens, KU-19-19 cells, read-out: IC50, bladder cancer cell line KU-19-19.
[11] abbreviates: MBT-2 cells, read-out: IC50, bladder cancer cell line MBT-2.
Setting [12] is: CWR22 cells, read-out: IC50, prostate cancer cell line CWR22.
Setting [13] is: DU-145, DU145/TXR cells, read-out: IC50, prostate cancer cell line DU145/TXR.
[14] abbreviates: DU-145, DU145 cells, read-out: IC50, prostate cancer cell line DU145.
Where [15] appears, read: LNcap cells, read-out: IC50, prostate cancer cell line LNcap.
[16] abbreviates: PC-3 cells, read-out: IC50, prostate cancer cell line PC-3.

SMILES strings stand for the structures. Where two headings read alike, the source gives them in different places.

For `CSc1c(C(C)=O)c(=O)c2c(Cl)ccc(Br)c2n1S(=O)(=O)c1ccc(C(C)(C)C)cc1` [Compound 40, 3-acetyl-8-bromo-1-((4-(tert-butyl)phenyl)sulfonyl)-5-chloro-2-(methylthio)quinolin-4(1H)-one], the IC50 (in the assay with neuroblastoma cell lines; with liver cancer cell lines; in assay [1]; in assay [2] (setting [5]); in assay [2] (setting [6]); in assay [2] (setting [7])) was above 2000 nM throughout. The IC50 in assay [2] (setting [8]) is above 2000 nM; in assay [2] (setting [9]), above 2000 nM; in assay [2] (setting [10]), above 2000 nM; in assay [2] (setting [11]), above 2000 nM; in assay [3], above 10000 nM; in assay [4] (setting [12]), above 2000 nM. Further, the IC50 in assay [4] (setting [13]), in assay [4] (setting [14]), in assay [4] (setting [15]) and in assay [4] (setting [16]) was above 2000 nM each time.

`CC(=O)c1c(S(C)(=O)=O)n(S(=O)(=O)c2ccc(C(C)(C)C)cc2)c2c(Br)ccc(Cl)c2c1=O` [Compound 41, 3-acetyl-8-bromo-1-((4-(tert-butyl)phenyl)sulfonyl)-5-chloro-2-(methylsulfonyl)quinolin-4(1H)-one]: the IC50 (in the assay with neuroblastoma cell lines; in the assay on liver cancer cell lines; in assay [1]; in assay [2] (setting [5]); in assay [2] (setting [6]); in assay [2] (setting [7])) was above 2000 nM each time. Also, the IC50 in assay [2] (setting [8]) is above 2000 nM; in assay [2] (setting [9]), above 2000 nM; in assay [2] (setting [10]) it was above 2000 nM; in assay [2] (setting [11]), above 2000 nM; in assay [3], above 10000 nM; in assay [4] (setting [12]), above 2000 nM. Besides, the IC50 in assay [4] (setting [13]), in assay [4] (setting [14]), in assay [4] (setting [15]) and in assay [4] (setting [16]) was above 2000 nM each time.

On to `CC(=O)c1c([S+](C)[O-])n(S(=O)(=O)c2ccc(C(C)(C)C)cc2)c2c(Br)ccc(Cl)c2c1=O` (centres unmarked) [Compound 42, 3-acetyl-8-bromo-1-((4-(tert-butyl)phenyl)sulfonyl)-5-chloro-2-(methylsulfinyl)quinolin-4(1H)-one], for which the IC50 (in the assay with neuroblastoma cell lines; in the assay on liver cancer cell lines; in assay [1]; in assay [2] (setting [5]); in assay [2] (setting [6]); in assay [2] (setting [7])) was above 2000 nM each time. Also, the IC50 in assay [2] (setting [8]) is 1890 nM; in assay [2] (setting [9]), above 2000 nM; in assay [2] (setting [10]), above 2000 nM; in assay [2] (setting [11]) it was above 2000 nM; in assay [3], above 10000 nM; in assay [4] (setting [12]) it was above 2000 nM. For the same compound, the IC50 in assay [4] (setting [13]), in assay [4] (setting [14]), in assay [4] (setting [15]) and in assay [4] (setting [16]) was above 2000 nM throughout.

`CC(=O)c1c(SCc2cc(Cl)ccc2Cl)[nH]c2c(Br)ccc(Cl)c2c1=O` [Compound 43, 3-acetyl-8-bromo-5-chloro-2-((2,5-dichlorobenzyl)thio)quinolin-4(1H)-one]: the IC50 (in the assay with neuroblastoma cell lines; with liver cancer cell lines; in assay [1]; in assay [2] (setting [5]); in assay [2] (setting [6]); in assay [2] (setting [7])) was above 2000 nM throughout. Besides, the IC50 in assay [2] (setting [8]) is above 2000 nM; in assay [2] (setting [9]), above 2000 nM; in assay [2] (setting [10]), above 2000 nM; in assay [2] (setting [11]), above 2000 nM; in assay [3] it was above 10000 nM; in assay [4] (setting [12]), above 2000 nM. In addition, the IC50 in assay [4] (setting [13]), in assay [4] (setting [14]), in assay [4] (setting [15]) and in assay [4] (setting [16]) was above 2000 nM in each case.

Take `CC(=O)c1c(SCc2cc(F)cc(F)c2)[nH]c2c(Br)ccc(Cl)c2c1=O` [Compound 45, 3-acetyl-8-bromo-5-chloro-2-((3,5-difluorobenzyl)thio)quinolin-4(1H)-one]: the IC50 (in the assay on neuroblastoma cell lines; in the assay with liver cancer cell lines; in assay [1]; in assay [2] (setting [5]); in assay [2] (setting [6]); in assay [2] (setting [7])) was above 2000 nM each time. Also, the IC50 is above 2000 nM in assay [2] (setting [8]); above 2000 nM in assay [2] (setting [9]); above 2000 nM in assay [2] (setting [10]); above 2000 nM in assay [2] (setting [11]); above 10000 nM in assay [3]; above 2000 nM in assay [4] (setting [12]). Moreover, the IC50 in assay [4] (setting [13]), in assay [4] (setting [14]), in assay [4] (setting [15]) and in assay [4] (setting [16]) was above 2000 nM each time.

For the compound `CC(=O)c1c(SCc2cccc(I)c2)[nH]c2c(Br)ccc(Cl)c2c1=O` [Compound 47, 3-acetyl-8-bromo-5-chloro-2-((3-iodobenzyl)thio)quinolin-4(1H)-one], the IC50 (in the assay with neuroblastoma cell lines; in the assay with liver cancer cell lines; in assay [1]; in assay [2] (setting [5]); in assay [2] (setting [6]); in assay [2] (setting [7])) was above 2000 nM throughout. Also, the IC50 in assay [2] (setting [8]) is above 2000 nM; in assay [2] (setting [9]), above 2000 nM; in assay [2] (setting [10]), above 2000 nM; in assay [2] (setting [11]) it was above 2000 nM; in assay [3], above 10000 nM; in assay [4] (setting [12]), above 2000 nM. Moreover, the IC50 in assay [4] (setting [13]), in assay [4] (setting [14]), in assay [4] (setting [15]) and in assay [4] (setting [16]) was above 2000 nM throughout.

For `CC(=O)c1c([S+]([O-])Cc2cccc(I)c2)[nH]c2c(Br)ccc(Cl)c2c1=O` (centres unmarked) [Compound 48, 3-acetyl-8-bromo-5-chloro-2-((3-iodobenzyl)sulfinyl)quinolin-4(1H)-one], the IC50 (in the assay with neuroblastoma cell lines; in the assay with liver cancer cell lines; in assay [1]; in assay [2] (setting [5]); in assay [2] (setting [6]); in assay [2] (setting [7])) was above 2000 nM each time. Moreover, the IC50 is above 2000 nM in assay [2] (setting [9]); above 10000 nM in assay [3]; above 2000 nM in assay [4] (setting [12]); 1570 nM in assay [4] (setting [13]); above 2000 nM in assay [4] (setting [14]); above 2000 nM in assay [4] (setting [15]).

Regarding `CC(=O)c1c(SCc2cccc(F)c2)[nH]c2c(Br)ccc(Cl)c2c1=O` [Compound 49, 3-acetyl-8-bromo-5-chloro-2-((3-fluorobenzyl)thio)quinolin-4(1H)-one], the IC50 (in the assay on neuroblastoma cell lines; in the assay with liver cancer cell lines; in assay [1]; in assay [2] (setting [5]); in assay [2] (setting [6]); in assay [2] (setting [7])) was above 2000 nM each time. Further, the IC50 in assay [2] (setting [8]) is above 2000 nM; in assay [2] (setting [9]), above 2000 nM; in assay [2] (setting [10]) it was above 2000 nM; in assay [2] (setting [11]), above 2000 nM; in assay [3] it was above 10000 nM; in assay [4] (setting [12]), above 2000 nM. In addition, the IC50 in assay [4] (setting [13]), in assay [4] (setting [14]), in assay [4] (setting [15]) and in assay [4] (setting [16]) was above 2000 nM throughout.

Consider `CC(=O)c1c(SCc2ccccc2)nc2c(Br)ccc(Cl)c2c1O` [Compound 52, 1-(2-(benzylthio)-8-bromo-5-chloro-4-hydroxyquinolin-3-yl)ethan-1-one], for which the IC50 (in the assay on neuroblastoma cell lines; in the assay with liver cancer cell lines; in assay [1]; in assay [2] (setting [5]); in assay [2] (setting [6]); in assay [2] (setting [7])) was above 2000 nM each time. Further, the IC50 was above 2000 nM in assay [2] (setting [8]); above 2000 nM in assay [2] (setting [9]); above 2000 nM in assay [2] (setting [10]); above 2000 nM in assay [2] (setting [11]); above 10000 nM in assay [3]; above 2000 nM in assay [4] (setting [12]). Further, the IC50 in assay [4] (setting [13]), in assay [4] (setting [14]), in assay [4] (setting [15]) and in assay [4] (setting [16]) was above 2000 nM in each case.

As to `CC(=O)c1c([S+]([O-])Cc2ccccc2)nc2c(Br)ccc(Cl)c2c1O` (centres unmarked) [Compound 53, 1-(2-(benzylsulfinyl)-8-bromo-5-chloro-4-hydroxyquinolin-3-yl)ethan-1-one], the IC50 (in the assay with neuroblastoma cell lines; in the assay on liver cancer cell lines; in assay [1]; in assay [2] (setting [5]); in assay [2] (setting [6]); in assay [2] (setting [7])) was above 2000 nM each time. Moreover, the IC50 in assay [2] (setting [9]) is above 2000 nM; in assay [3], above 10000 nM; in assay [4] (setting [12]), above 2000 nM; in assay [4] (setting [13]), above 2000 nM; in assay [4] (setting [14]), above 2000 nM; in assay [4] (setting [15]), above 2000 nM.

As to `CC(=O)c1c(S(=O)(=O)Cc2ccccc2)nc2c(Br)ccc(Cl)c2c1O` [Compound 54, 1-(2-(benzylsulfonyl)-8-bromo-5-chloro-4-hydroxyquinolin-3-yl)ethan-1-one], the IC50 (with neuroblastoma cell lines; in the assay with liver cancer cell lines; in assay [1]; in assay [2] (setting [5]); in assay [2] (setting [6]); in assay [2] (setting [7])) was above 2000 nM throughout. Also, the IC50 in assay [2] (setting [9]) was above 2000 nM; in assay [2] (setting [11]) it was above 2000 nM; in assay [3], above 10000 nM; in assay [4] (setting [12]) it was above 2000 nM; in assay [4] (setting [13]) it was above 2000 nM; in assay [4] (setting [14]), above 2000 nM. The IC50 in assay [4] (setting [15]) and in assay [4] (setting [16]) was above 2000 nM throughout.

As to `CC(=O)c1c([S+]([O-])Cc2ccccc2C#N)[nH]c2c(Br)ccc(Cl)c2c1=O` (centres unmarked) [Compound 58, 2-(((3-acetyl-8-bromo-5-chloro-4-oxo-1,4-dihydroquinolin-2-yl)sulfinyl)methyl)benzonitrile], the IC50 in the assay with neuroblastoma cell lines was above 2000 nM; in the assay on liver cancer cell lines it was 780 nM; in assay [1], 700 nM; in assay [2] (setting [5]), 920 nM; in assay [2] (setting [6]) it was above 2000 nM; in assay [2] (setting [7]) it was 820 nM. Further, the IC50 in assay [2] (setting [9]) was above 2000 nM; in assay [3], above 10000 nM; in assay [4] (setting [12]), 1200 nM; in assay [4] (setting [13]), 1210 nM; in assay [4] (setting [14]), 1230 nM; in assay [4] (setting [15]), 1440 nM. Moreover, the IC50 in assay [4] (setting [16]) is 1300 nM.
